Test results: patent US10722515B2, “Dual CLK/CDK1 inhibitors for cancer treatment” (SRI INTERNATIONAL, priority 2016, dated 2020)

How the values were obtained:
Fms(h) = target: T1, Fms(h) (Homo sapiens, UniProt P07333); experiment: kinase profile, radiometric assay, Fms; assay type: biochemical
T1 construct: purchased Eurofins, Dundee, Scotland
Experimental: (§1) Enzymatic biochemical activities were evaluated in radiometric protein kinase assays (Eurofins, Dundee, Scotland). Kinases are incubated with buffer, substrate and [γ-^33P]-ATP (specific activity approx. 500 cpm/pmol, concentration as required). The reaction is initiated by the addition of the MgATP mix. After incubation for 40 minutes at room temperature, the reaction is stopped by the addition of 3% phosphoric acid solution. 10 μL of the reaction is then spotted onto a P30 filtermat and washed three times for 5 minutes in 75 mM phosphoric acid and once in methanol prior to drying and scintillation counting.
(§2) All compounds are prepared to 50× final assay concentration in 100% DMSO. Positive control wells contain all components of the reaction with 2% DMSO. Blank wells contain all components of the reaction, with a reference inhibitor replacing the compound of interest. Each kinase is assigned a standard assay concentration of ATP within 20 μM of its apparent KM. Compounds were screened at 1 μM in duplicate or tested at 10 concentrations at half log dilution starting from 10 μM in singlicate. Dose response curves were fitted with four parameter logistic curve to obtain IC50 values. The average coefficient of variation (CV) of the conducted assay is 4.4%.

CLK1(h) = target: T2, CLK1(h) (Homo sapiens, UniProt P49759); experiment: radiometric protein kinase assay, CLK1; assay type: biochemical; settings: enzyme inhibition, radiometric, ATP 10 μM; read-out: IC50 (nM) CLK1
T2 construct: purchased Eurofins, Dundee, Scotland
T2 sequence (P49759 whole entry): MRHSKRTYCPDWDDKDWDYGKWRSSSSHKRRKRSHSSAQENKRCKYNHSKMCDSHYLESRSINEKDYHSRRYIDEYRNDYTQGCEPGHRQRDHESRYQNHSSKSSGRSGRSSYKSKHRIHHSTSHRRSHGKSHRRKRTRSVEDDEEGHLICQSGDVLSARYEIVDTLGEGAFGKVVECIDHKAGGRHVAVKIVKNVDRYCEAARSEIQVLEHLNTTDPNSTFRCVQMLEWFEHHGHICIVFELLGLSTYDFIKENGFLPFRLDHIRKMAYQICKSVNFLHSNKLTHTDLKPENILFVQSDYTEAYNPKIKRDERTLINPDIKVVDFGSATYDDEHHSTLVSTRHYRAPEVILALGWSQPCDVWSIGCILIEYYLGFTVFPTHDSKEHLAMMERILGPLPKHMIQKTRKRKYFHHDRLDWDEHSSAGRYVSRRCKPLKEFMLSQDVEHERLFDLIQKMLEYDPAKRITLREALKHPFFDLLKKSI
Experimental: as §1, §2

JAK3(h) = target: T3, JAK3(h) (Homo sapiens, UniProt P52333); experiment: kinase profile, radiometric assay, JAK3; assay type: biochemical
T3 construct: purchased Eurofins, Dundee, Scotland
T3 sequence (P52333 1-1124): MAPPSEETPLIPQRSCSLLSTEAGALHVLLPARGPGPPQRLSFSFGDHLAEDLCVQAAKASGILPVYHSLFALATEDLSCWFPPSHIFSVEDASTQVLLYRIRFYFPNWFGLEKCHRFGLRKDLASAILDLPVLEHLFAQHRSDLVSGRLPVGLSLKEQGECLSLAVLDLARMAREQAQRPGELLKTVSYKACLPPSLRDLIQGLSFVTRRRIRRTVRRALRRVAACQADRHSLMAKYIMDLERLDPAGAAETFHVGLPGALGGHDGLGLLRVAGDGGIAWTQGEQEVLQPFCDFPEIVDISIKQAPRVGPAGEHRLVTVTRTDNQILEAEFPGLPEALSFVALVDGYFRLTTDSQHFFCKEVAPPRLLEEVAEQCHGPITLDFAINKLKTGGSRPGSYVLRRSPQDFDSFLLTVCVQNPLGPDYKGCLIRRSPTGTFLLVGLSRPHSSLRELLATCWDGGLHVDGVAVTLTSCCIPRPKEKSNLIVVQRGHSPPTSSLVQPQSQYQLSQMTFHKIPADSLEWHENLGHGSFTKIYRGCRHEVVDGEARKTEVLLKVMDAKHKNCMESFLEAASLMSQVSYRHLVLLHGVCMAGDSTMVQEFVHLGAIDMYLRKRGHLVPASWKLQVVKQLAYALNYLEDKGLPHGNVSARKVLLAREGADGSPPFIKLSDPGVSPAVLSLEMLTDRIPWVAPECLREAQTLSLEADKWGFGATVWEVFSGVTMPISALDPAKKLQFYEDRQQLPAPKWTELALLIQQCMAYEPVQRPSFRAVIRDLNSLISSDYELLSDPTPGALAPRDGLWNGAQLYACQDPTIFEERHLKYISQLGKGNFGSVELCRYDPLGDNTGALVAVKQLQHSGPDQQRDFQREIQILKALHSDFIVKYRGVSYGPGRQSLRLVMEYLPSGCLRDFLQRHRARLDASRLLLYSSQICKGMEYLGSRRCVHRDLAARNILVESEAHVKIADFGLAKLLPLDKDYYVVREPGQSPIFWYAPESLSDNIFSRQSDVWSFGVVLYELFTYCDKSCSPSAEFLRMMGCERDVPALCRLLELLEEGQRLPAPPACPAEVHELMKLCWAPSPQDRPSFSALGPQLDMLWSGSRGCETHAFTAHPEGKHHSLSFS
Experimental: as §1, §2

[1] = system: SK-MEL-2/Luc-MDM2 cells (MDM2-Luc exon-skipping reporter); experiment: cell-based MDM2-Luc exon-skipping reporter assay; settings: for luciferase response (Luc fold) in the MDM2-Luc reporter assay: compared with less potent CLK inhibitors of the series; for MDM2/Luc: luciferase activation vs DMSO control, average of three experiments
ErbB2(h) = target: T4, ErbB2(h) (Homo sapiens, UniProt P04626); experiment: kinase profile, radiometric assay, ErbB2; assay type: biochemical
T4 construct: purchased Eurofins, Dundee, Scotland
T4 sequence (P04626 23-1255): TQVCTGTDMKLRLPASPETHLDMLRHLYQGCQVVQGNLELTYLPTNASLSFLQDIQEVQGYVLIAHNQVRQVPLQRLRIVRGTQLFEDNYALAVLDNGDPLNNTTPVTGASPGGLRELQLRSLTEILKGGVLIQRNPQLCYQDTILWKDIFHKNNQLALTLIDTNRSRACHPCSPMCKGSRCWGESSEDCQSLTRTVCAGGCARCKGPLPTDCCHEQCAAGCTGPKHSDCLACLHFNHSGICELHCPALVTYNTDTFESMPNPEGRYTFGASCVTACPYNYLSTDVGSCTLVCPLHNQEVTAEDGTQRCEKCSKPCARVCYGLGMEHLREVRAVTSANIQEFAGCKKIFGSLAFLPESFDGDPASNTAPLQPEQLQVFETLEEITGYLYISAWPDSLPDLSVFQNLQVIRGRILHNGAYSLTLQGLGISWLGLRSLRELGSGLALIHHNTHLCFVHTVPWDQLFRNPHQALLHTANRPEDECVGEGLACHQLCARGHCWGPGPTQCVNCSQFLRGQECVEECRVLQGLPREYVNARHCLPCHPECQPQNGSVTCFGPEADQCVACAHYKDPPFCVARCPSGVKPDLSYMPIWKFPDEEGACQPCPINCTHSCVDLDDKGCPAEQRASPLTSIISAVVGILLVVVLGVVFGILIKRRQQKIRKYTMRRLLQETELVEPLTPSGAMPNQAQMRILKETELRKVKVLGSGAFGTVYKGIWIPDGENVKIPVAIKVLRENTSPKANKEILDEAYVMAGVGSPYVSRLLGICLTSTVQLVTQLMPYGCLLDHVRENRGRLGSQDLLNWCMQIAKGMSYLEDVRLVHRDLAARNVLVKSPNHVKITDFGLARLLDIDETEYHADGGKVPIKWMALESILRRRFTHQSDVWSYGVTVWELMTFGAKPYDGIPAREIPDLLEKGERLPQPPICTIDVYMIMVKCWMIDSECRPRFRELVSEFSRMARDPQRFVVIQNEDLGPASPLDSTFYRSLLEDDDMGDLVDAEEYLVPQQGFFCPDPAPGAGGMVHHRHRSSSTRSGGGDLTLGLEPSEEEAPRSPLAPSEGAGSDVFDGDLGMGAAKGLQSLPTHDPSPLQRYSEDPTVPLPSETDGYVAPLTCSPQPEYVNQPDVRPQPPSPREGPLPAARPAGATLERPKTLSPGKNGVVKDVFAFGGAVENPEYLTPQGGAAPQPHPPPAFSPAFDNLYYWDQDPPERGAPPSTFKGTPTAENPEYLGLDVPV
Experimental: as §1, §2

B-Raf(h) = target: T5, B-Raf(h) (Homo sapiens, UniProt P15056); experiment: kinase profile, radiometric assay, B-Raf; assay type: biochemical
T5 construct: purchased Eurofins, Dundee, Scotland
T5 sequence (P15056 whole entry): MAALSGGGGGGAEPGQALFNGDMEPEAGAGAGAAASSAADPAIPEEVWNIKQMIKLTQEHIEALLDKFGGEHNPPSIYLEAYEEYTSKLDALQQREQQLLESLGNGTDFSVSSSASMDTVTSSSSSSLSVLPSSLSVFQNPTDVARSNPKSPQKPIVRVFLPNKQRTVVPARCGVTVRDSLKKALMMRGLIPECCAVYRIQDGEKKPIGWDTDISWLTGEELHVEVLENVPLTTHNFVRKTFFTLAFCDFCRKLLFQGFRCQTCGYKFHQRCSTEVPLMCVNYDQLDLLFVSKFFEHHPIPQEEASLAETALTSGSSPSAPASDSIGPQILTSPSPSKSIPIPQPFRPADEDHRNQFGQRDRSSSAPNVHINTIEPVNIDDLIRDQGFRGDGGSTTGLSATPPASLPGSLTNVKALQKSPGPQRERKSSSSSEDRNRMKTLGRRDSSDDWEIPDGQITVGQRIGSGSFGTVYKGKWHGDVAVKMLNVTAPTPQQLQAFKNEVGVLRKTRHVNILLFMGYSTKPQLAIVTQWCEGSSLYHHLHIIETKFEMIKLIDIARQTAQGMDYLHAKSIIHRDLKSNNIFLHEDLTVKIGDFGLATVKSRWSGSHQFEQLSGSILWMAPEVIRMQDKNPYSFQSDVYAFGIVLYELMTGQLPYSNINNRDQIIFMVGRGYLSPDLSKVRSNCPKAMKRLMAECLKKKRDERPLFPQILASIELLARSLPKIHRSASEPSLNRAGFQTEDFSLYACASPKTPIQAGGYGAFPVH
Experimental: as §1, §2

CLK2(h) = target: T6, CLK2(h) (Homo sapiens, UniProt P49760); experiment: radiometric protein kinase assay, CLK2; assay type: biochemical; settings: enzyme inhibition, ATP 10 μM
T6 construct: purchased Eurofins, Dundee, Scotland
T6 sequence (P49760 whole entry): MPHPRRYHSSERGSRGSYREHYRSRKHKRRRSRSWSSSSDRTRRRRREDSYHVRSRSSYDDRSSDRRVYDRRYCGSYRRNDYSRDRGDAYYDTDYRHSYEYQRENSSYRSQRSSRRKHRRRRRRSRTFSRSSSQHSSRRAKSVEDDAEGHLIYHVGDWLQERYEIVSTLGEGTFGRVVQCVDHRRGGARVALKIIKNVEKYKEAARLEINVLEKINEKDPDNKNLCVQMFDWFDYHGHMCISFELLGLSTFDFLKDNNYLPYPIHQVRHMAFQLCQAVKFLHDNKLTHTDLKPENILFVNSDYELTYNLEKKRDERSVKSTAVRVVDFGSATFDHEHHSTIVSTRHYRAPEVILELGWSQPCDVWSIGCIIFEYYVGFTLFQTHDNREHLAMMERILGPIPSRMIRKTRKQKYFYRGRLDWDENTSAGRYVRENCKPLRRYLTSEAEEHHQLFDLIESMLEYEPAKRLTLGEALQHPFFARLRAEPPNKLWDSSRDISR
Experimental: as §1, §2

Aurora-A(h) = target: T7, Aurora-A(h) (Homo sapiens, UniProt O14965); experiment: kinase profile, radiometric assay, Aurora-A; assay type: biochemical
T7 construct: purchased Eurofins, Dundee, Scotland
T7 sequence (O14965 1-403): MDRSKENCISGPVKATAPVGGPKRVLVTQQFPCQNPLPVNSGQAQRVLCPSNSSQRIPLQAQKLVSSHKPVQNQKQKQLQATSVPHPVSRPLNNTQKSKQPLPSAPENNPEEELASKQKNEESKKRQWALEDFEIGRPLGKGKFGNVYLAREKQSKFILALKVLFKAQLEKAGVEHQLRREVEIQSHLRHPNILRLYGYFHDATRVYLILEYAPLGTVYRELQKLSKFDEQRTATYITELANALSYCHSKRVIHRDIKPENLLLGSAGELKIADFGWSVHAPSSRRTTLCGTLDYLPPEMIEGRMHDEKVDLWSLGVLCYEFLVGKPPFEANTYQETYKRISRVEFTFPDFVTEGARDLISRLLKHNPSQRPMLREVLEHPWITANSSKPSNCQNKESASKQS
Experimental: as §1, §2

JNK1α1(h) = target: T8, JNK1α1(h) (Homo sapiens, UniProt P45983); experiment: kinase profile, radiometric assay, JNK1α1; assay type: biochemical
T8 construct: purchased Eurofins, Dundee, Scotland
T8 sequence (P45983 1-384 isoform P45983-2): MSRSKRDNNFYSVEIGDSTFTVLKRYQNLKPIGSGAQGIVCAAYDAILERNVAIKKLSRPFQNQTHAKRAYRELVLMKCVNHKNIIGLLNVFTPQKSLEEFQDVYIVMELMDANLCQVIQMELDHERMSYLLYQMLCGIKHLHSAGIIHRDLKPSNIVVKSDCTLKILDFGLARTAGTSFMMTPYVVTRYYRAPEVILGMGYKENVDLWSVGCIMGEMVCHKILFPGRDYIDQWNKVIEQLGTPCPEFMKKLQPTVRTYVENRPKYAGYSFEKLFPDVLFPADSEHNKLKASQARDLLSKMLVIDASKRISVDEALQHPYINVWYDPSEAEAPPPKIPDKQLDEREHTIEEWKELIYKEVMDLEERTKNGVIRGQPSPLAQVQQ
Experimental: as §1, §2

T1 sequence (P07333 20-972): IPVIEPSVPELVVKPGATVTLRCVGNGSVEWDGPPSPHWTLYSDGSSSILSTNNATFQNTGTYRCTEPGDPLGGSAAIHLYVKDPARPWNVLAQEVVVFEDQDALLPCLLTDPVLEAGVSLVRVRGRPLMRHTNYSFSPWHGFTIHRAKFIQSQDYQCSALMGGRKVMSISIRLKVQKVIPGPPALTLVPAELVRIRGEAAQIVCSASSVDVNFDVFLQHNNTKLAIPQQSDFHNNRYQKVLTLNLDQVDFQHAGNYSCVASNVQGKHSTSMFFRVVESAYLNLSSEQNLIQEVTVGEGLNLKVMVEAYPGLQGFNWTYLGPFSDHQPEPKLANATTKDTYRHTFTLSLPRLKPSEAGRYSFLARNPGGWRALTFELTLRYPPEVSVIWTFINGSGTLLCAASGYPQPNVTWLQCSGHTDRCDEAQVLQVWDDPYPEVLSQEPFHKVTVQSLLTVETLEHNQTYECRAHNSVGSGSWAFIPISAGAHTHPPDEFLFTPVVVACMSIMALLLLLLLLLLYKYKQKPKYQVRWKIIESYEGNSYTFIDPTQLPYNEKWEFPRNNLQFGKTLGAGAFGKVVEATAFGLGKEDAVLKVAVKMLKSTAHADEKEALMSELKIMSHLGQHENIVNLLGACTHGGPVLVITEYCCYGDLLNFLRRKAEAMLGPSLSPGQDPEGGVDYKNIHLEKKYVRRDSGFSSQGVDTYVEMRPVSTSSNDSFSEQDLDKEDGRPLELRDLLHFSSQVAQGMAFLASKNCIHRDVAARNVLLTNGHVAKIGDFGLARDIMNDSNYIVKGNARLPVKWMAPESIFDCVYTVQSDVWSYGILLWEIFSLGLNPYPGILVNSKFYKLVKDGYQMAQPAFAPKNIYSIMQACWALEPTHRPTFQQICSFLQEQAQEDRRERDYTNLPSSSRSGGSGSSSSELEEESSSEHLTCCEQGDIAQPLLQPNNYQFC

| SMILES | inhibition at 1 µM (Fms(h)) [%] | IC50 (CLK1(h)) [nM] | inhibition at 1 µM (JAK3(h)) [%] | luciferase response (Luc fold) in the MDM2-Luc reporter assay [1] | MDM2/Luc [1] | inhibition at 1 µM (ErbB2(h)) [%] | inhibition at 1 µM (B-Raf(h)) [%] | IC50 (CLK2(h)) [nM] | inhibition at 1 µM (Aurora-A(h)) [%] | inhibition at 1 µM (JNK1α1(h)) [%] | MDM2-Luc activity ([1]; result in words, no concentration stated) |
| --- | --- | --- | --- | --- | --- | --- | --- | --- | --- | --- | --- |
| CC(C)n1cnc2c(Nc3cccc(Cl)c3)nc(N[C@@H]3CCCC[C@@H]3N)nc21 [Compound 9, N^2-((1R,2S)-2-Aminocyclohexyl)-N^6-(3-Chlorophenyl)-9-Isopropyl-9H-Purine-2,6-Diamine] | -16 | 38 | 4 | stronger luciferase response | Active | 0 | 21 | 11 | -5 | -1 |  |
| CC(C)n1cnc2c(Nc3cc(N)cc(Cl)c3)nc(NC3CCCCC3N)nc21 (racemic) [Compound 14, Racemic N^6-Cis-(3-Amino-5-Chlorophenyl)-N^2-(2-Aminocyclohexyl)-9-Isopropyl-9H-Purine-2,6-Diamine] | 9 | 18 | 0 | stronger luciferase response | Active | 3 | 5 | 16 | 13 | -6 | strong MDM2-Luc activity |
| CC(C)n1cnc2c(Nc3cccc(Cl)c3)nc(N[C@H]3CCCC[C@@H]3N)nc21 [Compound 8, N^2-((1S,2S)-2-Aminocyclohexyl)-V-(3-Chlorophenyl)-9-Isopropyl-9H-Purine-2,6-Diamine] | -1 | 78 | 0 |  | Active | 2 | 10 | 16 | 4 | 3 |  |
